According to BindingDB's records for doi:10.1021/jm0496335 (2005):
pIC50: −log10 of the molar value. Where “and” joins values, the source holds several entries; their conditions need not be identical. Identical values can stand only once.

Target: Somatostatin receptor type 2 (Mus musculus, UniProt P30875)
Experiment: Inhibition of [125I][Leu8,D-Trp22,[…]]somatostatin-28 binding to somatostatin receptor 2

Somatostatin receptor type 2, sequence (P30875 whole entry): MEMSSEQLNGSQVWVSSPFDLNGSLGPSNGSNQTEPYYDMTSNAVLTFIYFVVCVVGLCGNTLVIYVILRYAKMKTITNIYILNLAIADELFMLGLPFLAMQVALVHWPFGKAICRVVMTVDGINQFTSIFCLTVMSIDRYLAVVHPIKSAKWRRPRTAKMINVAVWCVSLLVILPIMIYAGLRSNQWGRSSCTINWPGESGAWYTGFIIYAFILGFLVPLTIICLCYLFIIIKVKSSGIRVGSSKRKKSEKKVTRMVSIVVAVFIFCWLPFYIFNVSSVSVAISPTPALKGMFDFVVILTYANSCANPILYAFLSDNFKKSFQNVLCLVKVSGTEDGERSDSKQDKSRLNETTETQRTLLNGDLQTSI

C[C@H](O)[C@@H]1NC(=O)[C@H](CCCCN)NC(=O)[C@@H](Cc2c[nH]c3ccccc23)NC(=O)[C@H](Cc2ccc(O)cc2)NC(=O)[C@@H](NC(=O)[C@@H](Cc2ccccc2)NC(=O)CN2CCN(CC(=O)O)CCN(CC(=O)O)CCN(CC(=O)O)CC2)CSSCC(C(=O)N[C@H](CO)[C@H](C)O)NC1=O (stereo partly specified)
pIC50: 9.34 and 8.66
